According to the supplement of paper PMC11208160:
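Also: IS621 bridge recombinase in Escherichia coli cells against a fixed T5 target plasmid.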

Experiment: recombinant UMI read abundance after kanamycin selection (control-corrected) (log10(CPM+1)); higher = more efficient recombination; extreme values may be limits of the assay; sequences stand for … in AGTGCAGAGAAAATCGGCCAGTTTTCTCTGCCTGCAGTCCGCATGCCGTGGGACCCCTTGGGTTCTAACCTGTTGCCTAGATTTATGCAGCGGACTGCCTTTCTCCCAAAGTGATAAACCGG…AGGTTGGTTTCACT; site = the 11-nt donor
Procedure, shortened: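 Values, expressed as log10(CPM+1), derive from recombinant UMI counts converted to CPM, averaged across replicates and scaled by control-derived factors. Plating was with IPTG (0.07 mM) plus kanamycin or unselected, two replicates each. The screen pooled donor and donor-binding-loop pairs for the IS621 bridge recombinase in Escherichia coli.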
For “TAATGCTCATGGACCGGTTTTCCCGGTAATCCGTATTTGAA (site GAATGCTCTTT)”, the “recombinant UMI read abundance (log10)” value was 0.106.
With “ACGAGTGCATGGACCGGTTTTCCCGGTAATCCGTATTTGGT (site ACCAGTGCTAC)” the “recombinant UMI read abundance (log10)” value was 0.837.
With “CGATCATCATGGACCGGTTTTCCCGGTAATCCGTATTTGTT (site CGATCATCTAT)” the “recombinant UMI read abundance (log10)” value was 0.00529.
In the case of “CCTATTTCATGGACCGGTTTTCCCGGTAATCCGTATTTGAA (site CCTATTTCTTT)”, the “recombinant UMI read abundance (log10)” value is reported as 0.
With “CGATTATCATGGACCGGTTTTCCCGGTAATCCGTATTTGCT (site CGATAATCTAG)” the “recombinant UMI read abundance (log10)” value was 0.446.
With “CCCGGTTCATGGACCGGTTTTCCCGGTAATCCGTATTTGCA (site CCCGGTTCTTG)” the “recombinant UMI read abundance (log10)” value was 1.83.
In the case of “CGTACATCATGGACCGGTTTTCCCGGTAATCCGTATTTGCT (site CGAACATCTAG)”, the “recombinant UMI read abundance (log10)” value is reported as 0.623.
In the case of “CGTTCGACATGGACCGGTTTTCCCGGTAATCCGTATTTGAG (site CGTTTGACTCT)”, the “recombinant UMI read abundance (log10)” value is reported as 0.0134.
For “AAGTTCTCATGGACCGGTTTTCCCGGTAATCCGTATTTGCC (site AAGTTCTCTGG)”, the “recombinant UMI read abundance (log10)” value was 2.31.
With “AATTATGCATGGACCGGTTTTCCCGGTAATCCGTATTTGGA (site AATTATTCTTC)” the “recombinant UMI read abundance (log10)” value was 0.941.
With “GCCTAATCATGGACCGGTTTTCCCGGTAATCCGTATTTGGC (site GCCTAATCTGC)” the “recombinant UMI read abundance (log10)” value was 0.963.
With “CCATTTACATGGACCGGTTTTCCCGGTAATCCGTATTTGCT (site CCATTTACTAG)” the “recombinant UMI read abundance (log10)” value was 0.933.
With “GCATTACCATGGACCGGTTTTCCCGGTAATCCGTATTTGTC (site GCATTACCTGA)” the “recombinant UMI read abundance (log10)” value was 0.
With “AGCTATACATGGACCGGTTTTCCCGGTAATCCGTATTTGAC (site AACTATACTGT)” the “recombinant UMI read abundance (log10)” value was 0.393.
With “TGCCCTGCATGGACCGGTTTTCCCGGTAATCCGTATTTGTT (site TGCCCTGCTAA)” the “recombinant UMI read abundance (log10)” value was 0.0362.
For “CTTCACTCATGGACCGGTTTTCCCGGTAATCCGTATTTGTA (site CTTCTCTCTTA)”, the “recombinant UMI read abundance (log10)” value was 0.
With “CGGAATCCATGGACCGGTTTTCCCGGTAATCCGTATTTGTT (site GGGTATCCTAA)” the “recombinant UMI read abundance (log10)” value was 0.
In the case of “AGGATTACATGGACCGGTTTTCCCGGTAATCCGTATTTGAC (site AGGACTACTGT)”, the “recombinant UMI read abundance (log10)” value is reported as 0.662.
With “CAGTCGACATGGACCGGTTTTCCCGGTAATCCGTATTTGGC (site CAGTCGACTAC)” the “recombinant UMI read abundance (log10)” value was 0.105.
In the case of “CGATCAACATGGACCGGTTTTCCCGGTAATCCGTATTTGTT (site CGATCAACTAA)”, the “recombinant UMI read abundance (log10)” value is reported as 0.0564.
In the case of “TCATATTCATGGACCGGTTTTCCCGGTAATCCGTATTTGCA (site TCATATTCTTG)”, the “recombinant UMI read abundance (log10)” value is reported as 0.476.
In the case of “GTATGAACATGGACCGGTTTTCCCGGTAATCCGTATTTGTA (site GTATGCACTTA)”, the “recombinant UMI read abundance (log10)” value is reported as 0.00699.
With “ATAAGGCCATGGACCGGTTTTCCCGGTAATCCGTATTTGAA (site ATAAGGCCTGT)” the “recombinant UMI read abundance (log10)” value was 0.
For “CGATCATCATGGACCGGTTTTCCCGGTAATCCGTATTTGCT (site CGATCATCTAT)”, the “recombinant UMI read abundance (log10)” value was 0.
In the case of “CGTTTGGCATGGACCGGTTTTCCCGGTAATCCGTATTTGCT (site CGTTTGTCTAG)”, the “recombinant UMI read abundance (log10)” value is reported as 0.
In the case of “GAGATCACATGGACCGGTTTTCCCGGTAATCCGTATTTGAT (site GAGTTCACTAT)”, the “recombinant UMI read abundance (log10)” value is reported as 0.113.
With “AACTCCTCATGGACCGGTTTTCCCGGTAATCCGTATTTGCC (site CACTCCTCTGG)” the “recombinant UMI read abundance (log10)” value was 2.43.
For “GGTTCCCCATGGACCGGTTTTCCCGGTAATCCGTATTTGTA (site TGTTCCCCTTA)”, the “recombinant UMI read abundance (log10)” value was 0.0103.
For “CAAGAGCCATGGACCGGTTTTCCCGGTAATCCGTATTTGTG (site CAAGCGCCTCA)”, the “recombinant UMI read abundance (log10)” value was 0.0351.
In the case of “CGATCATCATGGACCGGTTTTCCCGGTAATCCGTATTTGCT (site CTATAATCTAG)”, the “recombinant UMI read abundance (log10)” value is reported as 1.08.
With “TTTGTGGCATGGACCGGTTTTCCCGGTAATCCGTATTTGCT (site TTTGTGGCTAG)” the “recombinant UMI read abundance (log10)” value was 0.113.
With “ACCCAGACATGGACCGGTTTTCCCGGTAATCCGTATTTGGG (site ACCTAGACTCC)” the “recombinant UMI read abundance (log10)” value was 0.00599.
With “CTTCTCTCATGGACCGGTTTTCCCGGTAATCCGTATTTGTA (site CTTCTCTCTTA)” the “recombinant UMI read abundance (log10)” value was 2.28.
For “CTGAAAACATGGACCGGTTTTCCCGGTAATCCGTATTTGCA (site CTGAAAACTTG)”, the “recombinant UMI read abundance (log10)” value was 1.48.
With “CCCGTACCATGGACCGGTTTTCCCGGTAATCCGTATTTGCT (site CCCGTACCTAG)” the “recombinant UMI read abundance (log10)” value was 0.
With “AATTATGCATGGACCGGTTTTCCCGGTAATCCGTATTTGGA (site AATCATGCTTC)” the “recombinant UMI read abundance (log10)” value was 0.445.
For “ACCTAAACATGGACCGGTTTTCCCGGTAATCCGTATTTGGG (site ACCTATACTCC)”, the “recombinant UMI read abundance (log10)” value was 0.0143.
With “GCCTATCCATGGACCGGTTTTCCCGGTAATCCGTATTTGAC (site GCCTATCCTGT)” the “recombinant UMI read abundance (log10)” value was 0.
In the case of “TTATTACCATGGACCGGTTTTCCCGGTAATCCGTATTTGGG (site TTATTACCTCC)”, the “recombinant UMI read abundance (log10)” value is reported as 0.0164.
In the case of “GTGAAGGCATGGACCGGTTTTCCCGGTAATCCGTATTTGTG (site GTGCAGGCTCA)”, the “recombinant UMI read abundance (log10)” value is reported as 0.498.
For “ACTCCAACATGGACCGGTTTTCCCGGTAATCCGTATTTGTC (site ACTCCAACTGA)”, the “recombinant UMI read abundance (log10)” value was 1.34.
In the case of “CAAGTCACATGGACCGGTTTTCCCGGTAATCCGTATTTGGA (site CAAGTCACTGC)”, the “recombinant UMI read abundance (log10)” value is reported as 0.803.
In the case of “ATTGAGACATGGACCGGTTTTCCCGGTAATCCGTATTTGCT (site ATTGAGACTAA)”, the “recombinant UMI read abundance (log10)” value is reported as 0.627.
With “ACTAGATCATGGACCGGTTTTCCCGGTAATCCGTATTTGAG (site ACTAGAGCTCT)” the “recombinant UMI read abundance (log10)” value was 0.00838.
For “AGGGCCTCATGGACCGGTTTTCCCGGTAATCCGTATTTGCT (site AGGGCCTCTAG)”, the “recombinant UMI read abundance (log10)” value was 2.95.
For “CTAATAACATGGACCGGTTTTCCCGGTAATCCGTATTTGAC (site CTAATAACTGT)”, the “recombinant UMI read abundance (log10)” value was 2.34.
With “CGGAATCCATGGACCGGTTTTCCCGGTAATCCGTATTTGTT (site CGGAATTCTAA)” the “recombinant UMI read abundance (log10)” value was 0.
With “CCAGGTCCATGGACCGGTTTTCCCGGTAATCCGTATTTGCA (site CCGGGTCCTTG)” the “recombinant UMI read abundance (log10)” value was 0.
For “CCAATCACATGGACCGGTTTTCCCGGTAATCCGTATTTGTT (site CCAATCACTAA)”, the “recombinant UMI read abundance (log10)” value was 0.84.
With “GACTGGACATGGACCGGTTTTCCCGGTAATCCGTATTTGGT (site GACTGGACTAC)” the “recombinant UMI read abundance (log10)” value was 0.826.
For “CAGAAGCCATGGACCGGTTTTCCCGGTAATCCGTATTTGTT (site CAGAAGCCTAA)”, the “recombinant UMI read abundance (log10)” value was 1.14.
For “TTCTACACATGGACCGGTTTTCCCGGTAATCCGTATTTGCT (site TTCTACACTAG)”, the “recombinant UMI read abundance (log10)” value was 1.16.
For “ATCCCAGCATGGACCGGTTTTCCCGGTAATCCGTATTTGAG (site ATCCAAGCTCT)”, the “recombinant UMI read abundance (log10)” value was 0.00798.
With “ACCTAGACATGGACCGGTTTTCCCGGTAATCCGTATTTGTG (site ACCTAGACTCT)” the “recombinant UMI read abundance (log10)” value was 0.22.
With “CCGGTTACATGGACCGGTTTTCCCGGTAATCCGTATTTGCT (site CCGATTACTAG)” the “recombinant UMI read abundance (log10)” value was 0.782.
In the case of “CGTTTGGCATGGACCGGTTTTCCCGGTAATCCGTATTTGCT (site CGTCTGGCTAG)”, the “recombinant UMI read abundance (log10)” value is reported as 0.00793.
In the case of “AACCGTGCATGGACCGGTTTTCCCGGTAATCCGTATTTGAT (site AACCGTTCTAT)”, the “recombinant UMI read abundance (log10)” value is reported as 0.
For “GCCACGCCATGGACCGGTTTTCCCGGTAATCCGTATTTGGA (site GCCACGCCTTT)”, the “recombinant UMI read abundance (log10)” value was 0.00923.
For “GCGAAGCCATGGACCGGTTTTCCCGGTAATCCGTATTTGGC (site GCGAAGCCTGC)”, the “recombinant UMI read abundance (log10)” value was 0.
For “TAGGCTGCATGGACCGGTTTTCCCGGTAATCCGTATTTGGT (site TAGGCTGCTAC)”, the “recombinant UMI read abundance (log10)” value was 0.811.
In the case of “CACTCCTCATGGACCGGTTTTCCCGGTAATCCGTATTTGCC (site AACTCCTCTGG)”, the “recombinant UMI read abundance (log10)” value is reported as 0.563.
For “CAACAACCATGGACCGGTTTTCCCGGTAATCCGTATTTGTC (site CAACAACCTGA)”, the “recombinant UMI read abundance (log10)” value was 0.474.
For “CTACTATCATGGACCGGTTTTCCCGGTAATCCGTATTTGAC (site CTATTATCTGT)”, the “recombinant UMI read abundance (log10)” value was 0.0113.
In the case of “CAATGCTCATGGACCGGTTTTCCCGGTAATCCGTATTTGAA (site CAATGCTCTTG)”, the “recombinant UMI read abundance (log10)” value is reported as 0.554.
For “CCTCCTTCATGGACCGGTTTTCCCGGTAATCCGTATTTGCT (site CCTCCTTCTAG)”, the “recombinant UMI read abundance (log10)” value was 0.
With “CACTCCTCATGGACCGGTTTTCCCGGTAATCCGTATTTGCC (site CACTCGTCTGG)” the “recombinant UMI read abundance (log10)” value was 0.
With “AAAGTGTCATGGACCGGTTTTCCCGGTAATCCGTATTTGAC (site AAGGTGTCTGT)” the “recombinant UMI read abundance (log10)” value was 0.
With “ACAGCAGCATGGACCGGTTTTCCCGGTAATCCGTATTTGCA (site ACAGTATCTTG)” the “recombinant UMI read abundance (log10)” value was 0.
In the case of “AATTATGCATGGACCGGTTTTCCCGGTAATCCGTATTTGGA (site AATTATGCTTG)”, the “recombinant UMI read abundance (log10)” value is reported as 0.
In the case of “AATGTGTCATGGACCGGTTTTCCCGGTAATCCGTATTTGAT (site AATGTGTCTGT)”, the “recombinant UMI read abundance (log10)” value is reported as 0.
In the case of “ATCCTAGCATGGACCGGTTTTCCCGGTAATCCGTATTTGTT (site AACCTAGCTAA)”, the “recombinant UMI read abundance (log10)” value is reported as 0.00989.
In the case of “AGGAAAACATGGACCGGTTTTCCCGGTAATCCGTATTTGGG (site AGGAAAACTCC)”, the “recombinant UMI read abundance (log10)” value is reported as 0.592.
In the case of “AGTATTTCATGGACCGGTTTTCCCGGTAATCCGTATTTGAG (site AGTATTTCTCT)”, the “recombinant UMI read abundance (log10)” value is reported as 1.39.
With “CACTCCTCATGGACCGGTTTTCCCGGTAATCCGTATTTGCC (site TACTCCTCTGG)” the “recombinant UMI read abundance (log10)” value was 1.39.
For “TCCACCTCATGGACCGGTTTTCCCGGTAATCCGTATTTGCG (site TCCACCACTCG)”, the “recombinant UMI read abundance (log10)” value was 0.00715.
